Measured values: patent publication US8563714B2, “Bridged spiro [2.4] heptane derivatives as ALX receptor and/or FPRL2 agonists” (Actelion Pharmaceuticals Ltd., priority 2009, dated 2013)

Tests used:
human FPRL2 = molecular target: T1, human FPRL2 (Homo sapiens, UniProt P25089); experiment: Intracellular calcium measurements (FLIPR), agonistic activity in HEK293-hFPRL2-Gα16 cells; assay type: cell-based; conditions: Fluo-4 calcium FLIPR, normalized to GLY14-Humanin 100 nM
T1 construct: expressed in transfected cells; host or cells: HEK293 (HEK293-hFPRL2-Gα16)
T1 sequence (P25089 1-353): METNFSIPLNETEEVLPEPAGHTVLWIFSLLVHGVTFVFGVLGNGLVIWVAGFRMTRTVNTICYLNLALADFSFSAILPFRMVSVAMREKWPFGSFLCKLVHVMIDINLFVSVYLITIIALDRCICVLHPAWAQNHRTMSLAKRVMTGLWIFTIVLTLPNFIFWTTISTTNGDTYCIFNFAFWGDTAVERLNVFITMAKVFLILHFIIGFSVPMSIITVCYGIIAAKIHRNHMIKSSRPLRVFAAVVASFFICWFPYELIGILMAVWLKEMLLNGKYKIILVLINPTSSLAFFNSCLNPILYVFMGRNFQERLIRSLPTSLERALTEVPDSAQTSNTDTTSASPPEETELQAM
Summary of the method: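 Peak values after baseline subtraction are expressed relative to 100 nM Gly14-Humanin; compounds diluted in assay buffer from 10 mM DMSO stocks.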

human ALX receptor = molecular target: T2, human ALX receptor (Homo sapiens, UniProt P25090); experiment: Intracellular calcium measurements (FLIPR), agonistic activity in HEK293-hALXR-Gα16 cells; assay type: cell-based; conditions: Fluo-4 calcium FLIPR, normalized to WKYMVm 10 nM
T2 construct: expressed in transfected cells; host or cells: HEK293 (HEK293-hALXR-Gα16)
T2 sequence (P25090 1-351): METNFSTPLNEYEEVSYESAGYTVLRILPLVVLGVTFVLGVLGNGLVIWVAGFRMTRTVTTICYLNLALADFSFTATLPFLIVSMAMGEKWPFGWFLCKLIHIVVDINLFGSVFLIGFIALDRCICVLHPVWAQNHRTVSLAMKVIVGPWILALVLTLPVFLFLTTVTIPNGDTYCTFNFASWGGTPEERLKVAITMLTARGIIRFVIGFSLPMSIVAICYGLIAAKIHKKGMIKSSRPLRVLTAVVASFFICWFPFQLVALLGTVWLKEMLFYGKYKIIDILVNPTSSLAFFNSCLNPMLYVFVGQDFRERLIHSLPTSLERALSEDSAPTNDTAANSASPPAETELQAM
Summary of the method: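 HEK293 cells expressing hALXR and Gα16 were loaded with 1 μM Fluo-4 AM and 20 mM HEPES for 60 min at 37°C, then exposed to serially diluted compound. FLIPR fluorescence was read at ex 488/em 540 nm. Baseline-subtracted peak responses were normalized to 10 nM WKYMVm.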

| Structure (SMILES) | EC50 (human FPRL2) | EC50 (human ALX receptor) |
| --- | --- | --- |
| O=C(NCCCN1CCCC1)[C@H]1[C@H](C(=O)Nc2ccc(Br)cc2)[C@@H]2C=C[C@H]1C21CC1 (racemic) [Example 30, (5R*)—N^5-(4-Bromophenyl)-(6R*)—N^6-(3-pyrrolidin-1-yl-propyl)-(4S*,7R*)-[4,7-ethenylene-spiro[2.4]heptane]-5,6-dicarboxamide] | 405 nM | 4.9 nM |
| O=C(NCCCc1nc2ccccc2[nH]1)[C@H]1[C@H](C(=O)Nc2ccc(Br)cc2)[C@@H]2C=C[C@H]1C21CC1 (racemic) [Example 32, (5R*)—N^5-(4-Bromophenyl)-(6R*)—N^6-(3-(1H-benzoimidazol-2-yl)-propyl)-(4S*,7R*)-[4,7-ethenylene-spiro[2.4]heptane]-5,6-dicarboxamide] | 3280 nM | 5.4 nM |
| O=C(NCCO)[C@H]1[C@H](C(=O)Nc2ccc(Br)cc2)[C@@H]2C=C[C@H]1C21CC1 (racemic) [Example 34, (5R*)—N^5-(4-Bromophenyl)-(6R*)—N^6-(2-hydroxy-ethyl)-(4S*,7R*)-[4,7-ethenylene-spiro[2.4]heptane]-5,6-dicarboxamide] | 16100 nM | 6.1 nM |
| COCCN(CCOC)C(=O)C1C(C(=O)Nc2ccc(Br)cc2)C2C=CC1C21CC1 (racemic) [Example 35, (5R*)—N^5-(4-Bromophenyl)-(6R*)—N^6,N^6-bis-(2-methoxy-ethyl)-(4S*,7R*)-[4,7-ethenylene-spiro[2.4]heptane]-5,6-dicarboxamide] | 1870 nM | 6.1 nM |
| N#CCNC(=O)[C@H]1[C@H](C(=O)Nc2ccc(Br)cc2)[C@@H]2C=C[C@H]1C21CC1 (racemic) [Example 36, (5R*)—N^5-(4-Bromophenyl)-(6R*)—N^6-(cyano-methyl)-(4S*,7R*)-[4,7-ethenylene-spiro[2.4]heptane]-5,6-dicarboxamide] | 11500 nM | 6.7 nM |
| O=C(NCCCn1cccn1)[C@H]1[C@H](C(=O)Nc2ccc(Br)cc2)[C@@H]2C=C[C@H]1C21CC1 (racemic) [Example 37, (5R*)—N^5-(4-Bromophenyl)-(6R*)—N^6-(3-1H-pyrazol-1-yl-propyl)-(4S*,7R*)-[4,7-ethenylene-spiro[2.4]heptane]-5,6-dicarboxamide] | 1710 nM | 7.1 nM |
| NCc1ccc(CNC(=O)[C@H]2[C@H](C(=O)Nc3ccc(Br)cc3)[C@@H]3C=C[C@H]2C32CC2)cc1 (racemic) [Example 38, (5R*)—N^5-(4-Bromophenyl)-(6R*)—N^6-[(4-aminomethyl-phenyl)-methyl]-(4S*,7R*)-[4,7-ethenylene-spiro[2.4]heptane]-5,6-dicarboxamide] | 1550 nM | 7.5 nM |
| CCN(CC)CCN(CC)C(=O)[C@H]1[C@H](C(=O)Nc2ccc(Br)cc2)[C@@H]2C=C[C@H]1C21CC1 (racemic) [Example 39, (5R*)—N^5-(4-Bromophenyl)-(6R*)—N^6-ethyl-N^6-(2-diethylamino-ethyl)-(4S*,7R*)-[4,7-ethenylene-spiro[2.4]heptane]-5,6-dicarboxamide] | 1540 nM | 7.6 nM |
| O=C(NCCCn1ccnc1)[C@H]1[C@H](C(=O)Nc2ccc(Br)cc2)[C@@H]2C=C[C@H]1C21CC1 (racemic) [Example 40, (5R*)—N^5-(4-Bromophenyl)-(6R*)—N^6-(3-1H-imidazol-1-yl-propyl)-(4S*,7R*)-[4,7-ethenylene-spiro[2.4]heptane]-5,6-dicarboxamide] | 848 nM | 9 nM |
| O=C(NCCCCO)[C@H]1[C@H](C(=O)Nc2ccc(Br)cc2)[C@@H]2C=C[C@H]1C21CC1 (racemic) [Example 42, (5R*)—N^5-(4-Bromophenyl)-(6R*)—N^6-(4-hydroxy-butyl)-(4S*,7R*)-[4,7-ethenylene-spiro[2.4]heptane]-5,6-dicarboxamide] | 7840 nM | 9.6 nM |
| CN1CCN(CCCNC(=O)[C@H]2[C@H](C(=O)Nc3ccc(Br)cc3)[C@@H]3C=C[C@H]2C32CC2)CC1 (racemic) [Example 43, (5R*)—N^5-(4-Bromophenyl)-(6R*)—N^6-(3-(4-methyl-piperazin-1-yl)-propyl)-(4S*,7R*)-[4,7-ethenylene-spiro[2.4]heptane]-5,6-dicarboxamide] | 925 nM | 9.5 nM |
| NCCNC(=O)[C@H]1[C@H](C(=O)Nc2ccc(Br)cc2)[C@@H]2C=C[C@H]1C21CC1 (racemic) [Example 44, (5R*)—N^5-(4-Bromophenyl)-(6R*)—N^6-(2-amino-ethyl)-(4S*,7R*)-[4,7-ethenylene-spiro[2.4]heptane]-5,6-dicarboxamide] | 4910 nM | 10 nM |
| CN(C)CCN(C)C(=O)[C@H]1[C@H](C(=O)Nc2ccc(Br)cc2)[C@@H]2C=C[C@H]1C21CC1 (racemic) [Example 45, (5R*)—N^5-(4-Bromophenyl)-(6R*)—N^6-methyl-N^6-(2-dimethylamino-ethyl)-(4S*,7R*)-[4,7-ethenylene-spiro[2.4]heptane]-5,6-dicarboxamide] | 4160 nM | 11 nM |
| CC(C)(C)OC(=O)NCCCCNC(=O)[C@H]1[C@H](C(=O)Nc2ccc(Br)cc2)[C@@H]2C=C[C@H]1C21CC1 (racemic) [Example 46, (5R*)—N^5-(4-Bromophenyl)-(6R*)—N^6-(4-tert-butoxycarbonyl-amino-butyl)-(4S*,7R*)-[4,7-ethenylene-spiro[2.4]heptane]-5,6-dicarboxamide] | 1600 nM | 11 nM |
| CN(CCNC(=O)[C@H]1[C@H](C(=O)Nc2ccc(Br)cc2)[C@@H]2C=C[C@H]1C21CC1)C(=O)OC(C)(C)C (racemic) [Example 47, (5R*)—N^5-(4-Bromophenyl)-(6R*)—N^6-(2-(methyl-tert-butoxycarbonyl-amino)-ethyl)-(4S*,7R*)-[4,7-ethenylene-spiro[2.4]heptane]-5,6-dicarboxamide] | 1170 nM | 12 nM |
| O=C(NCCN1CCCC1)[C@H]1[C@H](C(=O)Nc2ccc(Br)cc2)[C@@H]2C=C[C@H]1C21CC1 (racemic) [Example 48, (5R*)—N^5-(4-Bromophenyl)-(6R*)—N^6-(2-pyrrolidin-1-yl-ethyl)-(4S*,7R*)-[4,7-ethenylene-spiro[2.4]heptane]-5,6-dicarboxamide] | 1380 nM | 12 nM |
| O=C(NCCn1cncn1)[C@H]1[C@H](C(=O)Nc2ccc(Br)cc2)[C@@H]2C=C[C@H]1C21CC1 (racemic) [Example 49, (5R*)—N^5-(4-Bromophenyl)-(6R*)—N^6-(2-1H-[1,2,4]-triazol-1-yl-ethyl)-(4S*,7R*)-[4,7-ethenylene-spiro[2.4]heptane]-5,6-dicarboxamide] | 1510 nM | 12 nM |
| O=C(NCc1ccoc1)[C@H]1[C@H](C(=O)Nc2ccc(Br)cc2)[C@@H]2C=C[C@H]1C21CC1 (racemic) [Example 50, (5R*)—N^5-(4-Bromophenyl)-(6R*)—N^6-(furan-3-yl-methyl)-(4S*,7R*)-[4,7-ethenylene-spiro[2.4]heptane]-5,6-dicarboxamide] | 1080 nM | 13 nM |
| CN(C)CCCCCNC(=O)[C@H]1[C@H](C(=O)Nc2ccc(Br)cc2)[C@@H]2C=C[C@H]1C21CC1 (racemic) [Example 51, (5R*)—N^5-(4-Bromophenyl)-(6R*)—N^6-(5-dimethyl-amino-pentyl)-(4S*,7R*)-[4,7-ethenylene-spiro[2.4]heptane]-5,6-dicarboxamide] | 1490 nM | 8.2 nM |
| CN(C)CCCNC(=O)[C@H]1[C@H](C(=O)Nc2ccc(Br)cc2)[C@@H]2C=C[C@H]1C21CC1 (racemic) [Example 52, (5R*)—N^5-(4-Bromophenyl)-(6R*)—N^6-(3-dimethyl-amino-propyl)-(4S*,7R*)-[4,7-ethenylene-spiro[2.4]heptane]-5,6-dicarboxamide] | 6360 nM | 9.6 nM |
| COCCCNC(=O)[C@H]1[C@H](C(=O)Nc2ccc(Br)cc2)[C@@H]2C=C[C@H]1C21CC1 (racemic) [Example 53, (5R*)—N^5-(4-Bromophenyl)-(6R*)—N^6-(3-methoxy-propyl)-(4S*,7R*)-[4,7-ethenylene-spiro[2.4]heptane]-5,6-dicarboxamide] | 5030 nM | 16 nM |
| O=C(NCCCn1cncn1)[C@H]1[C@H](C(=O)Nc2ccc(Br)cc2)[C@@H]2C=C[C@H]1C21CC1 (racemic) [Example 55, (5R*)—N^5-(4-Bromophenyl)-(6R*)—N^6-(3-1H-[1,2,4]-triazol-1-yl-propyl)-(4S*,7R*)-[4,7-ethenylene-spiro[2.4]heptane]-5,6-dicarboxamide] | 6680 nM | 18 nM |
